Key:
LPA1 [1] = molecular target: T1, LPA1 (Homo sapiens, UniProt Q92633); details: IPF patients, 26-week clinical trial; cited from earlier work
[2] = system: mouse epithelial renal cell line, MCT; details: LPA treatment of MCT cells, co-treatment; cited from earlier work
[3] = system: pancreatic cancer cell lines; details: cited from earlier work
UUO mice = details: cited from earlier work
[4] = system: human foetal lung fibroblasts; details: induced by BAL obtained from IPF patients; cited from earlier work
LPA1 [5] = molecular target: T1, LPA1; assay: LPA1 functional antagonist assay (LPA-induced calcium flux); type: cell-based; parameters: expressed in transfected cells; host or cells: Chinese hamster ovary (CHO) cells; details: CHO cells overexpressing human LPA1; calcium flux induced by 10 nM LPA; read-out: hLPA1 IC50
Protocol: The effectiveness of compounds of the present invention as LPA1 inhibitors can be determined in an LPA1 functional antagonist assay as follows:
Chinese hamster ovary cells overexpressing human LPA1 were plated overnight (15,000 cells/well) in poly-D-lysine coated 384-well microplates (Greiner bio-one, Cat #781946) in DMEM/F12 medium (Gibco, Cat #11039). Following overnight culture, cells were loaded with calcium indicator dye (AAT Bioquest Inc, Cat #34601) for 30 minutes at 37° C. The cells were then equilibrated to room temperature for 30 minutes before the assay. Test compounds solubilized in DMSO were transferred to 384 well non-binding surface plates (Corning, Cat #3575) using the Labcyte Echo acoustic dispense and diluted with assay buffer [1×HBSS with calcium/magnesium (Gibco Cat #14025-092), 20 mM HEPES (Gibco Cat #15630-080) and 0.1% fatty acid free BSA (Sigma Cat # A9205)] to a final concentration of 0.5% DMSO. Diluted compounds were added to the cells by FDSS6000 (Hamamatsu) at final concentrations ranging from 0.08 nM to 5 μM. and were then incubated for 20 min at room temperature at which time LPA (Avanti Polar Lipids Cat #857130C) was added at final concentrations of 10 nM to stimulate the cells. […] IC50 values were determined by fitting data to a 4-parameter logistic equation (GraphPad Prism, San Diego Calif.).

T1 sequence (Q92633 whole entry): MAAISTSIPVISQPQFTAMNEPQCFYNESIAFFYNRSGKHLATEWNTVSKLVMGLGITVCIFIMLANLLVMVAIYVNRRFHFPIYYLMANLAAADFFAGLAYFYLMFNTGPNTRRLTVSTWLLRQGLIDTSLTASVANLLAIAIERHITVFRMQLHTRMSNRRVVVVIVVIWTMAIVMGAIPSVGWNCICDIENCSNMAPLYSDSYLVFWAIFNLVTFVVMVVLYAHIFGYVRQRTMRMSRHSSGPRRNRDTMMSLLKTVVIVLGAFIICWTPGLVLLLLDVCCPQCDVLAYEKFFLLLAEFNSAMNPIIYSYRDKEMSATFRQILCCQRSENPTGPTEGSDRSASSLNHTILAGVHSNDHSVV

Row | Structure (SMILES) | IC50 (LPA1 [5]) | also measured
1 | Cc1noc(-c2ccc(-c3ccc(C4(C(=O)O)CC4)cc3)cc2)c1NC(=O)O[C@H](C)c1ccccc1 [BMS-986020] |  | rate of FVC (forced vital capacity) decline (LPA1 [1]): significantly reduce
2 | Cc1noc(-c2ccc(CSCCC(=O)O)cc2)c1NC(=O)OC(C)c1ccccc1Cl (centres unmarked) [Ki16425] |  | induction of CTGF expression [2]: almost completely suppressed; invasion activity ([3]; LPA-induced and ascites-induced, highly peritoneal metastatic pancreatic cancer cell line): blocked; in vitro migration ([3]; in response to LPA and peritoneal fluid (ascites) from pancreatic cancer patients): effectively blocked; development of renal fibrosis (UUO mice): closely resembled the profile of LPA1 (−/−) mice; chemotaxis of human foetal lung fibroblasts [4]: blocked
3 | C[C@H](C1CC1)N(C)C(=O)OCc1c(-c2ccc(O[C@H]3CCC[C@H](C(=O)O)C3)cc2)cnn1C [Example 58] | 38 nM | 
4 | CCCC(C)(C)N(C)C(=O)OCc1c(-c2ccc(O[C@@H]3CCC[C@@H](C(=O)O)C3)cn2)cnn1C (racemic) [Example 31] | 51 nM | 
5 | Cc1nc(-c2cnn(C)c2COC(=O)N(C)[C@H](C)C2CC2)ccc1O[C@H]1CCC[C@H](C(=O)O)C1 [Example 65] | 48 nM | 
6 | Cc1nc(-c2cnn(C)c2COC(=O)N(C)[C@H](C)C2CC2)cnc1O[C@H]1CCC[C@H](C(=O)O)C1 [Example 6] | 94 nM | 
7 | CC(C)CCN(C)C(=O)OCc1c(-c2ccc(O[C@@H]3CCC[C@@H](C(=O)O)C3)cn2)cnn1C (racemic) [Example 34] | 33 nM | 
8 | CC(C)CCN(C)C(=O)OCc1c(-c2ccc(O[C@@H]3CCC[C@@H](C(=O)O)C3)cc2)cnn1C [Example 37] | 2040 nM | 
9 | C[C@@H](C1CC1)N(C)C(=O)OCc1c(-c2ccc(O[C@H]3CCC[C@H](C(=O)O)C3)cc2)cnn1C [Example 57] | 192 nM | 
10 | Cc1nc(-c2cnn(C)c2COC(=O)N(C)CC2CCC2)ccc1O[C@H]1CCC[C@H](C(=O)O)C1 [Example 21] | 10 nM | 

Source: patent US11261174B2, “Pyrazole O-linked carbamoyl cyclohexyl acids as LPA antagonists” (BRISTOL-MYERS SQUIBB COMPANY, priority 2017, dated 2022)
